The record followed here is paper PMC11783601, “Analogue-Sensitive Inhibition of Histone Demethylases Uncovers Member-Specific Function in Ribosomal Protein Synthesis” (Journal of the American Chemical Society, 2025).

“Also recorded” adds a separate entry of the source.

Data set [1] deals with HEK293T cells. Put plainly: MTT assay. Format: cell-based, human. To be noted: near millimolar concentrations (100 to 800 µM, 24 hours). The source says: We next examined the orthogonal pairs for their ability to modulate lysine demethylation on the chromosomal histone in cultured human cells (Figure 4A). To this end, we generated the F185A mutation in full-length KDM4A carrying all of the functional domains. Furthermore, to enhance cell permeability, we synthesized two chemoselective ester prodrugs 6A and 6B carrying either an n-octyl or a trifluoromethyl benzyl ester as the lipophilic moiety, respectively (Figures 4A, S5, and S6, Scheme S3).[46],[47] We confirmed the cell permeability of 6A and 6B and their subsequent hydrolysis to 6 by analyzing extracts of compound-treated HEK293T cells using LC-HRMS. […]
12. Examining cell permeability and toxicity of 6A and 6B
In a T-25 cell culture flask, HEK293T cells were treated with either 200 µM L-Leu octyl-ester NOG 6A, L-Leu TFMB-ester NOG 6B, or corresponding volume of DMSO. Following 24 hours of incubation at 37 °C, media was removed and 3mL of 80:20 methanol: water was added while the flasks with cells were on dry ice. The flasks were then incubated in -80 °C for 10 minutes to allow cell lysis. […]
To assess the toxicity of 6A/B on HEK 293-T cells (ATCC CRL-1573) were counted, and 5,000 cells were plated into a 96 well cell culture plate (Corning) for n=5 of each treatment. […] Absorbance at 570nm was quantified via TECAN Infinite […]

Data set [2] relates to rRNA transcription in HEK293T cells. Put plainly: Fixed cell immunofluorescence staining for H3K9me3 and 5FU (BrdU antibody) incorporation into rRNA. Format: cell-based, human. The procedure:
Upregulation of protein synthesis is linked to enhanced ribosomal biogenesis driven by the expression and coordinated assembly of the ribosomal RNAs (rRNAs). To systematically investigate the role of KDM4A in rRNA activation, HEK293T cells expressing wild type KDM4A or asKDM4A were briefly (∼15 min) exposed to 5-fluorouridine (5FU), a uridine analogue known to rapidly incorporate into nascent RNAs, in the presence of cell-permeable n-octyl IOX1 or NOL derivative 6B, respectively (Figure 6A). Given that there are about 350 copies of rDNA in the human genome, brief exposure to 5FU ensures the labeling of rRNAs primarily.[49][52] The cells were then fixed and stained with H3K9me3 antibody, along with BrdU antibody which recognizes 5FU, to examine any correlation between histone demethylation and rRNA expression using high-resolution immunofluorescence imaging. Both wild type KDM4A and F185A mutant led to robust increase in 5FU incorporated rRNA levels, while reduction in H3K9me3 signals was observed (Figures 6B,C and S36). […]
19. Fixed cell immunofluorescence staining
Cells were grown on poly-D-lysine (Gibco A3890401) treated glass coverslips (ThermoScientific 12-545-81P) overnight and transfected the next day with 300 ng KDM4A WT/F185A using […] of lipofectamine 2000 (Invitrogen 11668019). The cells were incubated overnight and treated with indicated inhibitor at varying time points. When probing rRNA transcription, cells were incubated with 2 mM 5-Fluorouridine (Sigma F5130) for 15 minutes. […]
20. Quantification of fixed-cell imaging data
TIF images obtained from confocal microscopy experiments were quantified in ImageJ. […]
The mean fluorescent signal was then measured. […]
For the time dependent imaging, cells containing the transfected KDM4A mutant were identified by their HA signal. […] The mean signal was then measured for H3K9me3 or BrdU only within the cells expressing the KDM4A mutant. To compare changes in H3K9me3 or BrdU between trials, the quantification values were normalized to the mean signal at t=0. […]

On to `CCCCCCCCOC(=O)C(=O)NC(CC(C)C)C(=O)O` [6A, L-Leu octyl-ester NOG], for which, in data set [1], the cytotoxicity result is “marginal cytotoxicity”.

Consider `CC(C)CC(NC(=O)C(=O)OCc1cccc(C(F)(F)F)c1)C(=O)O` [6B, L-Leu TFMB-ester NOG], for which the cytotoxicity entry in data set [1] is given as “marginal cytotoxicity”. In addition, in data set [2] (HEK293T cells expressing F185A), the “5FU incorporation into rRNA” value is “attenuated 5FU incorporation in a dose–response manner” and the H3K9me3 levels entry is reported as “re-emergence of H3K9me3 levels”.

For `CCCCCCCCOC(=O)c1ccc(O)c2ncccc12` [n-octyl IOX1], the “histone demethylation and 5FU incorporation” value in data set [2] (HEK293T cells overexpressing wild type KDM4A, 10 µM n-octyl IOX1) is “inhibited; also recorded: repressed histone demethylation and 5FU incorporation”.
